ChEMBL document CHEMBL5465560, “Selectivity Literature for EUbOPEN Chemogenomic Library” (2024)

Assays:
[1] = target: T1, Mitogen-activated protein kinase kinase kinase 13 (Homo sapiens) (UniProt O43283); experiment: Selectivity interaction (KinomeScan (DiscoverX)) EUB0001049a MAP3K13; details: at 1 µM
T1 sequence (whole entry): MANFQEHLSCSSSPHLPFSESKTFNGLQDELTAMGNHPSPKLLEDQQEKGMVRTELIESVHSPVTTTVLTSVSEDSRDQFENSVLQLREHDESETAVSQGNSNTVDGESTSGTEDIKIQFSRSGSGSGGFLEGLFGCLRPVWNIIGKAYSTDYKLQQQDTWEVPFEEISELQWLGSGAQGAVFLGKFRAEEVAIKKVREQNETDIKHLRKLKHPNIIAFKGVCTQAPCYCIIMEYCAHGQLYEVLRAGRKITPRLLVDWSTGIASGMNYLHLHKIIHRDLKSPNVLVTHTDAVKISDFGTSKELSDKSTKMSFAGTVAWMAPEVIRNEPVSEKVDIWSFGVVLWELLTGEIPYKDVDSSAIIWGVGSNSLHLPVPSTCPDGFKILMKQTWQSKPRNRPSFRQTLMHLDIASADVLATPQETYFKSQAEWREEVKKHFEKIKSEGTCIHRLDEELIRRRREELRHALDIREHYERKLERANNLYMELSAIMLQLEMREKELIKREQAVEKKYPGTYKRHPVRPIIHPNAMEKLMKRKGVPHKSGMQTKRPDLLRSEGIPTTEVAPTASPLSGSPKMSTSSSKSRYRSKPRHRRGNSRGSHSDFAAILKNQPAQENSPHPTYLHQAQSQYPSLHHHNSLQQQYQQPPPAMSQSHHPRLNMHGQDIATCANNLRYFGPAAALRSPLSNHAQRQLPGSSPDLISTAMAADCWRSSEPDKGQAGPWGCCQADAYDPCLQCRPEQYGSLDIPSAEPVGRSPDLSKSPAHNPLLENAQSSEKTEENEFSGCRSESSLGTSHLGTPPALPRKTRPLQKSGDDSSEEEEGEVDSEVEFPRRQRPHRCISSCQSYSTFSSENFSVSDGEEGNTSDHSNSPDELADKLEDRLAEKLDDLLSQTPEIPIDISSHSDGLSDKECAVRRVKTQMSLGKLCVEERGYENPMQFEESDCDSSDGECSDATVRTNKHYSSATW

[2] = target: Tyrosine-protein kinase Lck (Homo sapiens, UniProt P06239); experiment: Selectivity interaction (KinomeScan (DiscoverX)) EUB0001049a LCK; details: at 1 µM
[3] = target: Serine/threonine-protein kinase 32B (Homo sapiens) (UniProt Q9NY57); experiment: Selectivity interaction (KinomeScan (DiscoverX)) EUB0001049a STK32B; details: at 1 µM
[4] = target: Serine/threonine-protein kinase PAK 1 (Homo sapiens) (UniProt Q13153); experiment: Selectivity interaction (KinomeScan (DiscoverX)) EUB0000666a PAK1; details: at 10 µM
[5] = target: Receptor tyrosine-protein kinase erbB-4 (Homo sapiens, UniProt Q15303); experiment: Selectivity interaction (Kinase panel (Invitrogen)) EUB0000639a ERBB4; details: at 200 nM
[6] = target: T2, Cyclin-dependent kinase 11A (Homo sapiens) (UniProt Q9UQ88); experiment: Selectivity interaction (KinomeScan (DiscoverX)) EUB0000595a CDK11A; details: at 10 µM
T2 sequence (whole entry): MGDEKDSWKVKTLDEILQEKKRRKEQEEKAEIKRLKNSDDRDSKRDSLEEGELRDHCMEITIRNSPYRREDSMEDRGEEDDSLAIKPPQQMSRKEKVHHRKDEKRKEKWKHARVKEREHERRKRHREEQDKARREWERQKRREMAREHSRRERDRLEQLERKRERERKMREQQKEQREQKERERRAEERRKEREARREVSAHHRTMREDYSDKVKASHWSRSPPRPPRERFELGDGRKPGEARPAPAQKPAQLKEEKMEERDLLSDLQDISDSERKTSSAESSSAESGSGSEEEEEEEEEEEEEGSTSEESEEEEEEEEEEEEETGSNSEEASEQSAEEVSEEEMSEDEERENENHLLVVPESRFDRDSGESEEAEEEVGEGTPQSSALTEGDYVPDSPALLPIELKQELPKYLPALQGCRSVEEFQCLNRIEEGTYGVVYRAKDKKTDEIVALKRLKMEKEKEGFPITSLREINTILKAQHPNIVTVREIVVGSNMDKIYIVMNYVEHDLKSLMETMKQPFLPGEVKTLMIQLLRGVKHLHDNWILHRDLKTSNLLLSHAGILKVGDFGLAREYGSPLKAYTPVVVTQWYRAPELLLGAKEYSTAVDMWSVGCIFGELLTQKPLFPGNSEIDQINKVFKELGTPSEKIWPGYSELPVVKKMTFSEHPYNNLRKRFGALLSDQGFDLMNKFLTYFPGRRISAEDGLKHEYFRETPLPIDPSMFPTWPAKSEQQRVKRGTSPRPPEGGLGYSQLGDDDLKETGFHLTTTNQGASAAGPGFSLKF

[7] = target: Serine/threonine-protein kinase PLK1 (Homo sapiens, UniProt P53350); experiment: Selectivity interaction (KinomeScan (DiscoverX)) EUB0000595a PLK1; details: at 10 µM
[8] = target: Serine/threonine-protein kinase Nek6 (Homo sapiens) (UniProt Q9HC98); details: at 10 µM
[9] = target: Death-associated protein kinase 3 (Homo sapiens) (UniProt O43293); experiment: Selectivity interaction (KinomeScan (DiscoverX)) EUB0000607a DAPK3; details: at 10 µM
[10] = target: Histone-lysine N-methyltransferase KMT5B (Homo sapiens) (UniProt Q4FZB7); experiment: Selectivity interaction (Methyltransferase screen (radiometric assays, panel of 8 PRMTs, 21 protein lysine methyltransferases, 3 DNA methyltransferases, and one RNA methyltransferase)) EUB0000271b SUV420H1
[11] = target: T3, Phosphorylase b kinase gamma catalytic chain, liver/testis isoform (Homo sapiens) (UniProt P15735); experiment: Selectivity interaction (ProQinase) EUB0000171b PHKG2
T3 sequence (whole entry): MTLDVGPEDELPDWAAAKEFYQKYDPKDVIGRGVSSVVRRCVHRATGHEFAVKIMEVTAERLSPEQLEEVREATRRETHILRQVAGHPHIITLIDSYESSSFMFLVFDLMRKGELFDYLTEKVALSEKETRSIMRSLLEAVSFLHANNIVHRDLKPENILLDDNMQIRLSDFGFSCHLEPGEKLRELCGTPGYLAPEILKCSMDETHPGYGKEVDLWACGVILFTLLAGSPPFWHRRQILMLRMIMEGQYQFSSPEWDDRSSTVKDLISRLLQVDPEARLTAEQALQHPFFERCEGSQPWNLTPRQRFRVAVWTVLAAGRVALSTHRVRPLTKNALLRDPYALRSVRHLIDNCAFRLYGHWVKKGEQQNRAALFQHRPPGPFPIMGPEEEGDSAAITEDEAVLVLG

Sequence of Histone-lysine N-methyltransferase KMT5B (Homo sapiens) (Q4FZB7 whole entry, looked up, canonical isoform): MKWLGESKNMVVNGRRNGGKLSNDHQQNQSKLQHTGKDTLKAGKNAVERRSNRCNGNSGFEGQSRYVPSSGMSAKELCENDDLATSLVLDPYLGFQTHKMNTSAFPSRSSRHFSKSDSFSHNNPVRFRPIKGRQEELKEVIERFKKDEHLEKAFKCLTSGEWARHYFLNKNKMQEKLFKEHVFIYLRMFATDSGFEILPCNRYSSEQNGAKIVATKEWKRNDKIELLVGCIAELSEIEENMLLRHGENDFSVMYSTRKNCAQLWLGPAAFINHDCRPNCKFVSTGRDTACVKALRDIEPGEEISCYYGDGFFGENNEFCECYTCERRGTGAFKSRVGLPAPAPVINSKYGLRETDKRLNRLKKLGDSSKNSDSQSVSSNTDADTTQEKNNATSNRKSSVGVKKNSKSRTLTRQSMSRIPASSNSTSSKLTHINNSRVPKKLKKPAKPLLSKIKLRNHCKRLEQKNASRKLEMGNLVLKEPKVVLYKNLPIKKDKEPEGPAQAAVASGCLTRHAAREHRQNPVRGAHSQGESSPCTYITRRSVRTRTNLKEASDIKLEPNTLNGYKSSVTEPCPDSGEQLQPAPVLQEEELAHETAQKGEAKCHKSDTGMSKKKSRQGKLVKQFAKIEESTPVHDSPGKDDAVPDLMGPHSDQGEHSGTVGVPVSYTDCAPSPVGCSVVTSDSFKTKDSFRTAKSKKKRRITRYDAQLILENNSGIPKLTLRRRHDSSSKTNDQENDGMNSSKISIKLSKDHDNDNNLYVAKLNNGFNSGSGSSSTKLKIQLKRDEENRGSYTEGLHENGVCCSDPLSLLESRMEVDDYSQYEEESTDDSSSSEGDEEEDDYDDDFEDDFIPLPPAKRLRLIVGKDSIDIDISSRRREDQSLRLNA
Sequence of Serine/threonine-protein kinase Nek6 (Homo sapiens) (Q9HC98 whole entry): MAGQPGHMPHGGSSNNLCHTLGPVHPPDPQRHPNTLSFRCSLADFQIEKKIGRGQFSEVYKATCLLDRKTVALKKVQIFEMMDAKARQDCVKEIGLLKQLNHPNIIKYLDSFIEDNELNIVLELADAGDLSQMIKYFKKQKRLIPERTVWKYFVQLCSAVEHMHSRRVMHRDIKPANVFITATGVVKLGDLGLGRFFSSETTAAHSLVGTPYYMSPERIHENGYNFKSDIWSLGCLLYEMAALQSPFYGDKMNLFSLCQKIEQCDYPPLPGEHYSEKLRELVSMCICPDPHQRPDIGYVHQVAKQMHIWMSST
Sequence of Death-associated protein kinase 3 (Homo sapiens) (O43293 whole entry, looked up): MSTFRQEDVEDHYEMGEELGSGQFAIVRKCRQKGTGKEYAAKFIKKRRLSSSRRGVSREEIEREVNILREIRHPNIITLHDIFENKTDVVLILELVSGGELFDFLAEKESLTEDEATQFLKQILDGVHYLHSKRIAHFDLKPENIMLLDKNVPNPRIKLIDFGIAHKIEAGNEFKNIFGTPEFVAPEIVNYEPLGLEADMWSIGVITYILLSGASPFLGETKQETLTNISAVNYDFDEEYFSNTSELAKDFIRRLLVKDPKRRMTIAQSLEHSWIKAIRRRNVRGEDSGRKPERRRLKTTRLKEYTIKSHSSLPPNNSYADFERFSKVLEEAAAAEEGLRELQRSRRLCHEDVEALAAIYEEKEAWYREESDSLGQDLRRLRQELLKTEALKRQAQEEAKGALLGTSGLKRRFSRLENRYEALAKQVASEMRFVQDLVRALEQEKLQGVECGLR
Sequence of Serine/threonine-protein kinase 32B (Homo sapiens) (Q9NY57 whole entry): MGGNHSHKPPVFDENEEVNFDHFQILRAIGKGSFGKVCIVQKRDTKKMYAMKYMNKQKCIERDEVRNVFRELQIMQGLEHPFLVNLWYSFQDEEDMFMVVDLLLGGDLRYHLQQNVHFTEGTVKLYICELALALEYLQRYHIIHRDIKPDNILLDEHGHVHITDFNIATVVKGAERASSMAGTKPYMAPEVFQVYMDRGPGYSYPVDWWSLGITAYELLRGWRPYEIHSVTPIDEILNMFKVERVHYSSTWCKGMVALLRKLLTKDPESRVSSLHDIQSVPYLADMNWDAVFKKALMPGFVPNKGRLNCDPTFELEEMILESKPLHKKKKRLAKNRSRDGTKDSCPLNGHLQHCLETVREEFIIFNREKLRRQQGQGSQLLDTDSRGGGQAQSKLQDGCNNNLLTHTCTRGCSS
Sequence of Serine/threonine-protein kinase PAK 1 (Homo sapiens) (Q13153 whole entry): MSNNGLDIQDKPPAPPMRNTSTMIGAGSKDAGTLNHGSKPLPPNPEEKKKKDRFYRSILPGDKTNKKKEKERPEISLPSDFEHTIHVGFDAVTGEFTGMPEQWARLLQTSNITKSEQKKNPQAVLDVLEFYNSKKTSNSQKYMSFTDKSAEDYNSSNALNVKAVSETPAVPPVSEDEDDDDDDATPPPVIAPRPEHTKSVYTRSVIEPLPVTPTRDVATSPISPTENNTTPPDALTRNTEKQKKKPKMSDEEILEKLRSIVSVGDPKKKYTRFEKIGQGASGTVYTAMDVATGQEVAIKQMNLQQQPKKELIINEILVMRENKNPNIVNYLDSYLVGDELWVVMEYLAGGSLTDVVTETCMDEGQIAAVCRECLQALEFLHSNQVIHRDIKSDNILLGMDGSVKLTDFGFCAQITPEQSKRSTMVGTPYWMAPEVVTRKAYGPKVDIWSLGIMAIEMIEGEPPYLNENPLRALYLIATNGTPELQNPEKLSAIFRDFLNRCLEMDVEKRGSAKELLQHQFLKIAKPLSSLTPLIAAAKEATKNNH
Sequence of Receptor tyrosine-protein kinase erbB-4 (Q15303 whole entry): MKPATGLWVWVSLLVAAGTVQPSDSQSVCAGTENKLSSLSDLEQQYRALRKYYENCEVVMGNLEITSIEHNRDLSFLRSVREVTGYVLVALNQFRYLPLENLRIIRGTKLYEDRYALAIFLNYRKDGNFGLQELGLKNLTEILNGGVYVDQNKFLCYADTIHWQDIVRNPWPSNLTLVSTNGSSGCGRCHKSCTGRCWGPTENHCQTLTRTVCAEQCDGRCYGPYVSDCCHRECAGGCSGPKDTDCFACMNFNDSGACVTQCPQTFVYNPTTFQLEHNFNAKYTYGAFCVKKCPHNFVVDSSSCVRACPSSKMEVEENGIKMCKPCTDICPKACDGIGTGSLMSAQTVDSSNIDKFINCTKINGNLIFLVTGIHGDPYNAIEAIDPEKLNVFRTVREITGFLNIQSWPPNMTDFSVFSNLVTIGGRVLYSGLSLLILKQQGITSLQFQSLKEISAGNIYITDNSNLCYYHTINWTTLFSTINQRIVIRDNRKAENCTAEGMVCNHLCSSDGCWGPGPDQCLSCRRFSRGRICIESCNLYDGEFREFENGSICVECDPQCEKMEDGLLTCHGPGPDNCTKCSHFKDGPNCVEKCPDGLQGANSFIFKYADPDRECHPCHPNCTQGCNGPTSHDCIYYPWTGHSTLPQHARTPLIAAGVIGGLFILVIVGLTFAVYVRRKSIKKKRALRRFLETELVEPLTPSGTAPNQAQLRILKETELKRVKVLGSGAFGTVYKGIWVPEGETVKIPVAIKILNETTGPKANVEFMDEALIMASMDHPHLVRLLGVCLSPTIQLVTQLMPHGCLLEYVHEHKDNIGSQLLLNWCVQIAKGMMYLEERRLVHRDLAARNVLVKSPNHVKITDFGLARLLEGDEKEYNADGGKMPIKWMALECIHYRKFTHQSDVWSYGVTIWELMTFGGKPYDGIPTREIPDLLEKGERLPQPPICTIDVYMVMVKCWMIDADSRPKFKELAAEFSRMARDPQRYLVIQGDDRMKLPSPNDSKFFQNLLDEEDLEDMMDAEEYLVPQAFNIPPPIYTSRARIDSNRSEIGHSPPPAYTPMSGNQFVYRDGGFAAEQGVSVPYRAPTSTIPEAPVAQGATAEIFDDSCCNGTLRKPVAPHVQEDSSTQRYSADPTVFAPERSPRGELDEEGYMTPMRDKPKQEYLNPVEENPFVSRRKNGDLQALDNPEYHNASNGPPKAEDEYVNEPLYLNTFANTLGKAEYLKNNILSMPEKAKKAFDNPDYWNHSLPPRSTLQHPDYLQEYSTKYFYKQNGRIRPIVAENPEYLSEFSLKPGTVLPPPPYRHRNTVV
Sequence of Tyrosine-protein kinase Lck (P06239 2-509 limits assumed): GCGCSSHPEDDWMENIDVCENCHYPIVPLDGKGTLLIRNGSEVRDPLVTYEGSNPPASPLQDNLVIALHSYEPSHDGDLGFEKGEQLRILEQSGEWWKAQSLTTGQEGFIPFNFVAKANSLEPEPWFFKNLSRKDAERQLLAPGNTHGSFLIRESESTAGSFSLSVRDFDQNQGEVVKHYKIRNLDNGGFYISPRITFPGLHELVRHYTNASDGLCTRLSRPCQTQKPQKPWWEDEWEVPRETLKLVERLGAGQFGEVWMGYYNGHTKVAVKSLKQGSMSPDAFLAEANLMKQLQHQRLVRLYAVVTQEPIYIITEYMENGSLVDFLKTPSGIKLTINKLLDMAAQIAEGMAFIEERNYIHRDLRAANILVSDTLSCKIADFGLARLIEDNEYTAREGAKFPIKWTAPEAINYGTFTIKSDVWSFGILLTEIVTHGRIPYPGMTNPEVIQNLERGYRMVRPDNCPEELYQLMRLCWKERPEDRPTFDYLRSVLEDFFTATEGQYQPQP
Sequence of Serine/threonine-protein kinase PLK1 (P53350 whole entry): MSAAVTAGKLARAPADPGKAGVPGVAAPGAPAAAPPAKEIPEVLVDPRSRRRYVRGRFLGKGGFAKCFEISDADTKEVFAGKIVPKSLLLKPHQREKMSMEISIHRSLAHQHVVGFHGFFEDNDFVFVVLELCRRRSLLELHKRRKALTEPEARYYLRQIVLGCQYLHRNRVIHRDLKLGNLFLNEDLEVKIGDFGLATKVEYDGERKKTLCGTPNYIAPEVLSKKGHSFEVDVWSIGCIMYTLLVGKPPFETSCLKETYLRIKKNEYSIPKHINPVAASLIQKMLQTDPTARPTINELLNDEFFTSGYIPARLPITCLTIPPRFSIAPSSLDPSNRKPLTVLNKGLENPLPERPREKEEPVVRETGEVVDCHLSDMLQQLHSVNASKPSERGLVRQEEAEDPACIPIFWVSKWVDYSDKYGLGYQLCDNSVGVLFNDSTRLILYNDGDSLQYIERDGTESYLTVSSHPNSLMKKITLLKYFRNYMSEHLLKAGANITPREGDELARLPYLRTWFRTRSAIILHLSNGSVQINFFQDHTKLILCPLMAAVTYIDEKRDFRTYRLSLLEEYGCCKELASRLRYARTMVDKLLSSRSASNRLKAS

COc1cc(Nc2nc(C)cc(-c3cnn4nc(OC)ccc34)n2)cc(C(F)(F)F)c1
% of control [1]: 95%
% of control [2]: 96%
% of control [3]: 100%

O=C(NOC[C@H](O)CO)c1ccc(F)c(F)c1Nc1ccc(I)cc1F
% of control [4]: 100%

CC[C@@H]1[C@H](F)C(=O)N[C@@H]1COc1nccc2cc(C(N)=O)c(OC)cc12 [ZIMLOVISERTIB]
% of inhibition [5]: 8.76%

COCC(=O)NC/C=C/c1ccc2ncnc(Nc3ccc(Oc4ccc(C)nc4)c(C)c3)c2c1 [CP-724714]
% of control [6]: 100%
% of control [7]: 81%

Cc1cc([C@@H](C)Nc2ccccc2C(=O)O)c2nc(N3CCOCC3)cc(=O)n2c1 [AZD-6482]
% of control [8]: 100%

CNC(=O)Nc1ccc(-c2nc(N3CC4CCC(C3)O4)c3cnn(C4CCC5(CC4)OCCO5)c3n2)cc1
% of control [9]: 100%

Cc1cc(C)cc([C@@H]2c3cc(C)ccc3NC(=O)CN2C(=O)c2ccc(Br)s2)c1
% of activity ([10]; at 1 µM): 103%
% of activity ([10]; at 10 µM): 101%

C=CC(=O)Nc1cccc(C(=O)Nc2ccc(Nc3cc(-c4[nH]c(SC)nc4C)ccn3)cc2)c1
% of control ([11]; at 1 µM): 94%
% of control ([11]; at 5 µM): 96%
